Results published in patent US20260217698A1 (BEYANG THERAPEUTICS CO., LTD., priority 2022, published 2026).

Tests used:
melanin = experiment: Binding capacity of compounds to melanin; assay type: in vitro ADME, cuttlefish (Sepia officinalis); conditions: cuttlefish (Sepia officinalis), melanin suspension (1 mg/mL); 1 mg/mL melanin in PBS pH 7.4, 2 μM compound, 2 h at 37° C.; read-out: Fu % (percentage of free drug)
Method in brief: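 Compound (2 μM final) incubated with washed Sepia melanin (1 mg/mL, PBS pH 7.4) 2 h at 37° C with shaking; PBS with 0.1% BSA served as blank. Supernatants quantified by LC-MS/MS; bound fraction Fb derived from melanin versus blank concentration.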

VEGFR2 [1] = target: T1, VEGFR2 (Homo sapiens, UniProt P35968); experiment: Inhibition of VEGF-induced VEGFR2 autophosphorylation (pVEGFR2) in HUVEC cells, ELISA; assay type: cell-based; parameters: endogenous in cells; host or cells: HUVEC; conditions: 50 ng/mL human VEGF, compound 1 h
Description: Vascular endothelial growth factor receptor 2 (VEGFR2) is a primary receptor for VEGF-induced endothelial cell signaling. After ligand binding, VEGFR2 is autophosphorylated and activated. The main function of signaling from VEGFR2 is to induce vascularization during development and after tissue injury, and to bypass blocked blood vessels. Pathologically, VEGF and VEGFR2 are involved in tumor angiogenesis and vascular leakage. They are considered to be main participants in many different cancers and ocular diseases that accompany pathological neovascularization. This assay measured the ability of the compounds to inhibit VEGF-induced VEGFR2 autophosphorylation (pVEGFR2) in HUVEC cells by using ELISA.
Culture cells in a cell culture flask to reach a fusion degree of 60%-80% before cell inoculation. Dilute the cell suspension to […] with a pre-warmed complete medium. Add 80 μL of the cell suspension to all wells of a 96-well cell plate (Corning-3599); and incubate the plate overnight at 37° C. in the presence of 5% CO2. Dissolve the compound powder to 10 mM with DMSO and store it in a nitrogen cabinet. Compound dilution plate: Add a reference compound Ponatinib or a compound to be tested to a 96 V-well plate (Axygen-WIPP 2280) at concentrations achieved as follows: performing 3-fold gradient dilution starting from 5 mM (5 μL of 10 mM compound solution plus 5 μL of DMSO) for a total of 8 concentration points. […] Transfer 20 μL of the diluted compound from the intermediate plate to a cell plate. Then, incubate the cell plate for 1 h at 37° C. in the presence of 5% CO2. After the compound was treated for 1 h, add 25 μL of 250 ng/ml human VEGF at a final concentration of 50 ng/mL to a 96-well plate; and incubate the plate for 5 min at 37° C. in the presence of 5% CO2, centrifuge the plate for 10 min at 3,000 rpm, remove the medium and wash the cells once with 300 μL of pre-chilled DPBS per well. Then, centrifuge the plate for 10 min at 4,000 rpm, remove DPBS, and add 110 μL of pre-chilled 1× cell lysis buffer per well to the 96-well plate. Shake the plate for 40 min at 4° C. Then, freeze the plate in a refrigerator at −80° C. On the next day, remove the plate from the refrigerator at −80° C., thaw the plate, centrifuge the plate for 10 min at 3500 rpm, and add 100 μL of the supernatant per well to an ELISA plate. Seal the plate and incubate it for 2 h at 37° C. Wash the wells 4 times with 1× wash buffer. Add 100 μL of recombinant detection antibody per well. Seal the plate, incubate the plate for 1 h at 37° C., and repeat the step of plate washing. Add 100 μL of secondary antibody per well. Seal the plate, incubate the plate for 30 min at 37° C., and repeat the step of plate washing. Add 100 μL of TMB (protected from light) per well. Seal the plate, incubate the plate for 30 min at 37° C., and add 100 μL of the stop solution per well. Gently shake for 30 sec, measure the absorbance with a SpectraMax® 340 PC 384 Absorbance Microplate Reader within 30 min, and read an optical density value at 450 nm. Conduct data analysis using XL Fit software:
Conduct curve fitting using the 4 Parameter Logistic Model or Sigmoidal Dose-Response Model to obtain IC50 values.
X indicates the log value of compound concentration, Y indicates the inhibition rate (% inhibition), Top indicates the readout of the negative control wells, and Bottom indicates the readout of the positive control well.
Target sequence in this assay (P35968 20-1356): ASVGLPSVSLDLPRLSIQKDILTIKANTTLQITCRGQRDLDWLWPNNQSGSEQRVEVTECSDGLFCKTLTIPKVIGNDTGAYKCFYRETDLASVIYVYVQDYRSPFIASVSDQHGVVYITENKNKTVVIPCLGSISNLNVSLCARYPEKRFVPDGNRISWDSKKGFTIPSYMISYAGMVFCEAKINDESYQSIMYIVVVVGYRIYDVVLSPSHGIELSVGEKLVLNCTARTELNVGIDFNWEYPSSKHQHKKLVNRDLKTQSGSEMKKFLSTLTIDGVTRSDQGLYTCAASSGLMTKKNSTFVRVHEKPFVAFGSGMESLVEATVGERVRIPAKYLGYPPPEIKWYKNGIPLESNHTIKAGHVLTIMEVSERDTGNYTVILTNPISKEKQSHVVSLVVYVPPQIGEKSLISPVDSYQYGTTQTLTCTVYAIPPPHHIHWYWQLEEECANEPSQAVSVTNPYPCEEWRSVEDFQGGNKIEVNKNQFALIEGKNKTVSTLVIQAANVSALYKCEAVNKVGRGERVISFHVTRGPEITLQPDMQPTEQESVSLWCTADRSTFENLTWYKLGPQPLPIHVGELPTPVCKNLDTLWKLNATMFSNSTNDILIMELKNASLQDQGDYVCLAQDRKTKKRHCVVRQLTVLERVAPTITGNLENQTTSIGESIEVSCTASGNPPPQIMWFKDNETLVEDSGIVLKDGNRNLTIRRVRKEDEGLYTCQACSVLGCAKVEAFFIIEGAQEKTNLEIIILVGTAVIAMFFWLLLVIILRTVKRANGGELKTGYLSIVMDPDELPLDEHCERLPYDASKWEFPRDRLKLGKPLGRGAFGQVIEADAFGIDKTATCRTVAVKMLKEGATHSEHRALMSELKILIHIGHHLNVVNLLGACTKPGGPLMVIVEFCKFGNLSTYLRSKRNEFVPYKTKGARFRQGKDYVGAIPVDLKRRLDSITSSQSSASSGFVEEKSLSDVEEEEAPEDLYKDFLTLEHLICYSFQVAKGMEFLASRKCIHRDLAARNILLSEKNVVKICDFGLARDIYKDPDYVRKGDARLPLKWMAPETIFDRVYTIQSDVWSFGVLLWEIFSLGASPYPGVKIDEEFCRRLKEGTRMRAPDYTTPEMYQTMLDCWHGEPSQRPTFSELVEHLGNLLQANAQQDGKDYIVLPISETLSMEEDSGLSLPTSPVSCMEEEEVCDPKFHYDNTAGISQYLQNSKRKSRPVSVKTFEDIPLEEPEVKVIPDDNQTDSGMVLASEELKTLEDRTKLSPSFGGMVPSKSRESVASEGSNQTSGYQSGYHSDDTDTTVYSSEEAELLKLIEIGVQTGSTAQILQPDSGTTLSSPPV

VEGFR2 [2] = target: T1, VEGFR2; experiment: Kinase inhibition, Mobility Shift Assay/IMAP, VEGFR2; assay type: biochemical; parameters: purchased Carna 08-191
Method in brief: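 Substrate conversion (phosphorylated vs non-phosphorylated) read by mobility shift on Caliper EZ Reader II and converted to % inhibition relative to no-enzyme and DMSO controls. IC50 fitted from % inhibition versus log compound concentration.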
Target sequence in this assay (P35968 790-1356 limits assumed): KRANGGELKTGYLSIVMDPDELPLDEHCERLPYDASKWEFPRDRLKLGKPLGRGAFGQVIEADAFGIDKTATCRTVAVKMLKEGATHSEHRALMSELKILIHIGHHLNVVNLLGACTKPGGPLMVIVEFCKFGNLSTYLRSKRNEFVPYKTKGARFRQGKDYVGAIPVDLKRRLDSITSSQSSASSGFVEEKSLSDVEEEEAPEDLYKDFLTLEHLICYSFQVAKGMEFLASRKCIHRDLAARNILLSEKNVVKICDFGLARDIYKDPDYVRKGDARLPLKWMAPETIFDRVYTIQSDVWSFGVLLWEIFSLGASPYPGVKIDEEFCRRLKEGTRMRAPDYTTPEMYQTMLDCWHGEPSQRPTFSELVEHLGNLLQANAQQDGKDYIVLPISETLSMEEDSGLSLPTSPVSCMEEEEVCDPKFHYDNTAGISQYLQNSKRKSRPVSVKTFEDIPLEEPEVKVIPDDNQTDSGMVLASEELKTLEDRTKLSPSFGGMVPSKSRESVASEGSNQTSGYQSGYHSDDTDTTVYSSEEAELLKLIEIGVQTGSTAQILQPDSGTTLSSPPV

fraction unbound at 2 h, 2 μM (melanin) | IC50 (VEGFR2 [1]) [nM] | IC50 (VEGFR2 [2]) [nM] | SMILES
0.0286 | 87 | 3.03 | NC(=O)c1c(OCc2cc3c(cc2F)CCO3)nsc1NC(=O)NCCCCN1CC[C@@H](O)C1 [Compound T091, 3-[(5-fluoro-2,3-dihydrobenzofuran-6-yl)methoxy]-5-[4-[(3R)-3-hydroxypyrrolidin-1-yl]butylcarbamoylamino] isothiazole-4-carboxamide]
0.0702 | 103 | 4.85 | CN1CCN(CCCNC(=O)Nc2snc(OCc3cc4c(cc3F)CCO4)c2C(N)=O)CC1 [Compound T101, 3-[(5-fluoro-2,3-dihydrobenzofuran-6-yl)methoxy]-5-[3-(4-methylpiperazin-1-yl)propylcarbamoylamino] isothiazole-4-carboxamide]
0.0376 | 61 | 1.14 | NC(=O)c1c(OCc2cc(C(=O)NC3CC3)ccc2F)nsc1NC(=O)NCCCN1CC[C@H](F)C1 [Compound T116, 3-[[5-(cyclopropylcarbamoyl)-2-fluoro-phenyl]methoxy]-5-[3-[(3S)-3-fluoropyrrolidin-1-yl]propylcarbamoylamino]isothiazole-4-carboxamide]

Further lines, the molecule ahead of its results:

SMILES | fraction unbound at 2 h, 2 μM (melanin) | IC50 (VEGFR2 [1]) [nM] | IC50 (VEGFR2 [2]) [nM]
NC(=O)c1c(OCc2cc(C(=O)NC3CC3)ccc2F)nsc1NC(=O)NCCCCN1CCCC1 [Compound T087, 3-[[5-(cyclopropylcarbamoyl)-2-fluoro-phenyl]methoxy]-5-(4-pyrrolidin-1-ylbutylcarbamoylamino)isothiazole-4-carboxamide] | 0.0374 | 30 | 1.66
CN1CCN(CCCNC(=O)Nc2snc(OCc3cc(C(=O)NC4CC4)ccc3F)c2C(N)=O)CC1 [Compound T118, 3-[[5-(cyclopropylcarbamoyl)-2-fluoro-phenyl]methoxy]-5-[3-(4-methylpiperazin-1-yl)propylcarbamoylamino]isothiazole-4-carboxamide] | 0.111 | 48.2 | 1.15
NC(=O)c1c(OCc2cc(C(=O)NC3CC3)ccc2Cl)nsc1NC(=O)NCCCCN1CCCC1 [Compound T123, 3-[[2-chloro-5-(cyclopropylcarbamoyl)phenyl]methoxy]-5-(4-pyrrolidin-1-ylbutylcarbamoylamino)isothiazole-4-carboxamide] | 0.0298 | 0.78 | 0.63
NC(=O)c1c(OCc2c(F)ccc(C(=O)NC3CC3)c2F)nsc1NC(=O)NCCCCN1CCCC1 [Compound T124, 3-[[3-(cyclopropylcarbamoyl)-2,6-difluoro-phenyl]methoxy]-5-(4-pyrrolidin-1-ylbutylcarbamoylamino)isothiazole-4-carboxamide] | 0.0707 | 16.2 | 2.2
